Source: BigSolDB 2.1

C=CC1=C(C(=O)O)N2C(=O)[C@@H](NC(=O)/C(=N\OCC(=O)O)c3csc(N)n3)[C@H]2SC1.O.O.O
solubility (mole fraction)
Conditions | 278.15 K | 283.15 K | 288.15 K | 293.15 K | 298.15 K | 303.15 K | 308.15 K | 313.15 K | 318.15 K | 323.15 K
in acetone | 0.00223 | 0.00276 | 0.00308 | 0.00346 | 0.004 | 0.0044 | 0.00518 | 0.00581 | 0.00701 | 0.00854
in ethanol | 0.00189 | 0.0021 | 0.00246 | 0.00285 | 0.00321 | 0.0037 | 0.00415 | 0.00478 | 0.00536 | 0.00632
in ethyl acetate | 0.000678 | 0.000747 | 0.000971 | 0.00116 | 0.00139 | 0.00159 | 0.00185 | 0.00226 | 0.00257 | 0.00334
in isopropanol | 0.000918 | 0.00105 | 0.00128 | 0.00148 | 0.00178 | 0.00195 | 0.0023 | 0.00255 | 0.00291 | 0.0035
in n-butanol | 0.000983 | 0.00102 | 0.00122 | 0.00151 | 0.00172 | 0.002 | 0.00249 | 0.00293 | 0.00343 | 0.00437
in n-pentanol | 0.000403 | 0.00051 | 0.000602 | 0.000779 | 0.00101 | 0.00136 | 0.00152 | 0.00191 | 0.00255 | 0.003
in sec-butanol | 0.000899 | 0.000995 | 0.00119 | 0.00143 | 0.0015 | 0.00173 | 0.00211 | 0.00234 | 0.00276 | 0.00316
